ChEMBL document CHEMBL3272015, “Cysteine derivatives with reactive groups as potential antitumor agents” (1976)
Calls of active or inactive are those of the source. The calls are words filed in the database; no cut-off is given here.

System: TA3
Experiment: Antitumor activity against mouse TA3 cells assessed as growth inhibition
Assay type: functional

Structure (SMILES)	ID50
N[C@@H](CSC(c1ccccc1)(c1ccccc1)c1ccccc1)C(=O)O [S-TRITYL-L-CYSTEINE]	6.3 ×10⁻⁷ M
CC(=O)N1[C@@H](c2ccc(C)cc2)SC[C@H]1C(=O)CCl	3.2 ×10⁻⁵ M

System: TA3
Experiment: Induction of growth in mouse TA3 cell at 10^-4 M
Assay type: functional, cell-based

Structure (SMILES)	Activity
Cc1ccc([C@H]2SC[C@@H](C(=O)O)N2C(=O)C(F)(F)F)cc1	inactive
Cc1ccc([C@@H]2N[C@H](C(=O)O)CS2)cc1	Active
CC(=O)N1[C@@H](c2ccc(C)cc2)SC[C@H]1C(=O)O	inactive

System: TA3
Experiment: Antitumor activity against mouse TA3 cells assessed as growth inhibition at 10^-4 M
Assay type: functional, cell-based

Structure (SMILES)	growth inhibition (GI)
CC(=O)N1[C@@H](c2ccc(C)cc2)SC[C@H]1C(=O)C=[N+]=[N-]	inactive
CC(=O)N1C(c2ccc(C)cc2)SC(C)(C)C1C(=O)O (centres undefined)	inactive
CC(=O)N1[C@@H](c2ccc(C)cc2)SC[C@H]1C(=O)O	inactive
Cc1ccc(C2NC(C(=O)O)C(C)(C)S2)cc1 (centres undefined)	inactive
